Reference: patent publication US20090136968A1, “Novel in vitro methods for studying receptors recognizing volatile compounds” (Chemcom S. A., priority 2005, published 2009)

How the values were obtained:
mOR-I7 [1] = target: T1, mOR-I7 (Mus musculus, UniProt Q9QWU6); experiment: cAMP level immunoassay (TROPIX) in the novel assay on HEK 293T overexpressing mOR-I7; type: cell-based; conditions: BSA solution incubated with 16 μl of 1 M odorant; 20 minutes incubation
T1 construct: expressed in transfected cells; host or cells: HEK 293T
T1 sequence (Q9QWU6 1-327): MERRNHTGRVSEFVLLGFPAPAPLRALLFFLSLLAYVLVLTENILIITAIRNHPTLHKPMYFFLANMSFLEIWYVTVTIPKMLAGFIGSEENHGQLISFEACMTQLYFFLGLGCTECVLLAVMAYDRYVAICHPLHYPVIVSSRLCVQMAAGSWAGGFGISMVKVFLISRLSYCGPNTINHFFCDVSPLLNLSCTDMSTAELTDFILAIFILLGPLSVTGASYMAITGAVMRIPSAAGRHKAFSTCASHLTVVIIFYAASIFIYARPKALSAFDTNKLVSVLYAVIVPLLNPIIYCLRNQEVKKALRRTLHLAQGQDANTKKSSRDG
Description: Similarly to the first step of the fluorescence-based functional assay described above, BP solutions including SA, OBP and/or olfactory mucus (see concentration in the text) were incubated in the presence of odorant in a sealed flask for 16 hours at 4° C. (FIG. 3A). Such odorant-BP complexes were then applied to cultured-cell for 20 minutes at 37° C. cAMP level was then measured using the Tropix kit according to the manufacturer procedures (Applied Biosystem).
As depicted in FIG. 1, binding of odorant molecule to olfactory receptor triggers a cascade of molecular events. In the most commonly accepted pathway, the first second messenger is cAMP synthesized by adenylate cyclase type III. Therefore, a mean to test olfactory receptor activation is to assess variation of cellular cAMP pool after olfactory receptor activation. It is noteworthy that such assay could be performed in parallel to calcium flux assay described above to validate hits obtained during a screening.
Specificity of the novel cell based olfactory functional assay according to the present invention was tested following mOR-I7 activation after injection of these three odorants and two non related odorant, vanilline and piperonyl isobutyrate. Olfactory receptor activation was detected by cellular cAMP pool immunoassay. A solution of BSA was incubated overnight at 4° C.
As discussed above (FIG. 1), activation of olfactory receptor can also be followed through cAMP synthesis. […] Results are expressed as percent of response observed after incubation with 100 μM forskolin, an activator of adenylate cyclases. […] Scheme of the odorant molecules are depicted in FIG. 7E.

mOR-I7 [2] = target: T1, mOR-I7; experiment: Single cell calcium imaging (Fura2) on HEK 293T overexpressing mOR-I7, with or without mucus in buffer; type: cell-based; conditions: 500 μM octanal
Description: FIG. 2: Bovine olfactory mucus enhances hORL-424 activation by citronellal. (A and B) Calcium measurement was performed after activation of hORL-424 with citronellal in the presence of different amount of bovine olfactory mucus. 0 to 10 μl of mucus (0 to 10 μg of total protein) have been added to assay buffer. Calcium flux has been followed on FDSS (Hamamatsu Photonics K.K. plate reader, Japan) using Fluo4 as fluorescent dye. Histograms represent fluorescent signal observed in the presence or in the absence of 10 μl of bovine olfactory mucus. (C) Concentration response curve of HEK 293T overexpressing hORL-424 treated with citronellal. Gray boxes represent values obtained in the presence of bovine olfactory mucus. Calcium flux measurements have been performed on FDSS (Hamamatsu Photonics K.K. plate reader, Japan). (D and E) Traces obtained during single cell calcium imaging after addition of 500 μM octanal on HEK 293T overexpressing mOR-I7 in the absence (D) or in the presence of 10 μl of bovine olfactory mucus (E). Fura2 was used as fluorescent dye. Results are expressed as F340/F380 ratiometric measurement.
This bovine olfactory mucus property was also observed on a different OR in other assay format. FIGS. 2 D and E show traces obtained from single cell calcium imaging performed on HEK 293T overexpressing mOR-I7 and activated by octanal. In this assay, Fura2 was used as calcium tracer.

mOR-I7 activation by cellular cAMP pool (mOR-I7 [1]): mOR-I7 ligands
mOR-I7 activation (calcium flux) (mOR-I7 [2]; absence of mucus): faint activation
Structure (SMILES): CCCCCCCC=O [octanal]
mOR-I7 activation (calcium flux) (mOR-I7 [2]; presence of 10 μl bovine olfactory mucus, ATP positive control): calcium flux similar to the one observed after addition of ATP
